Series [1] has as its system Streptomyces sp. C GEO175 variant L376T_T240S, SEQ ID NO:19. The experiment in a line: Steady-state kinetics of 2-ketoacid decarboxylase (ADH/NADH coupled). The format is biochemical. The conditions noted are these: relative to GEO 175, same conditions. On the procedure: FIG. 6: Depicts results of kinetic characterization of GEO 175 and GEO 175 L376T_T240S. Kinetic constants were measured as described herein. The substrate 2-ketooctanoate carbon chain numbering referred to in the text is numbered in white. According to the molecular model of GEO 175, the double mutation L376T_T240S is predicted to recede the pocket by 1.4 Å and remove interactions between the binding pocket and carbon 8 of the ketoacid alkyl chain. […]
For the native KIVD and KIVD_VLV mutant, 2 ml overnight cultures of XL1B cells were transformed with pQE9 containing N-terminal his-tagged KIVD enzymes and grown in Terrific Broth (BP biomedical, Cat#3046-042) with 50 μg/mL of carbenicillin. […] Protein concentrations were determined using a Synergy H1 spectrophotometer (Biotek) by measuring absorbance at 280 nm using their calculated extinction coefficients with ExPASy ProtParam Tool.^33 All other buffers and salts were purchased from Fisher Scientific unless otherwise specified.
The kcat and KM values of selective KIVD mutants were measured for the substrates: C3, C5, isoC5, and C8. […] Activity was measured at 0.005 mM to 10 mM substrates. […]

The subject of series [2] is E. coli strain (ATCC 98082 pZS_thrO, pZAlac_ilvA_LeuA, pZE12LeuA*BCDKA6_KIVD_wt). The experiment in a line: Alcohol toxicity: growth (OD600) of the alcohol production strain over 7 hours. The format is cell-based. As to conditions: 7-hour incubation. On the procedure: Alcohol tolerance of the in vivo alcohol production strain was evaluated by supplementing the fermentation media with specified quantities of long chain alcohols, and measuring growth over 7 hours. Both the E. coli strain (ATCC 98082 pZS_thrO, pZAlac_ilvA_LeuA, pZE12LeuA*BCDKA6_KIVD_wt) and fermentation media (1×M9 metals+1× trace metal mix+0.5% yeast extract+2% glucose+antibiotics) and conditions are the same as described above (Fermentation procedure and analysis). Cells were grown in media without IPTG-induction to a starting OD600 ˜0.02 and then supplemented with either 1-petanol, 1-hexanol, 1-heptanol, or 1-octanol at specified concentrations of 10 mg/L, 50 mg/L, 250 mg/L, 500 mg/L, or 1000 mg/L. OD600 readings were taken hourly up to 7 hours.

The target of series [3] is GEO179, 2-ketoacid decarboxylase, SEQ ID NO:14 (Klebsiella variicola, UniProt A0ACD7F8P2, H281L/S236A/T380V). The series is described as follows: Steady-state kinetics of 2-ketoacid decarboxylase (ADH/NADH coupled). The format is biochemical. The conditions noted are these: pH 7.5, 21° C. The text has this: (§1) FIG. 20: Depicts results of a structural alignment of GEOs and KIVD (GEO175=SEQ ID NO:2, GEO243=SEQ ID NO:5, GEO 250=SEQ ID NO:6, GEO 242=SEQ ID NO:7, GEO 245=SEQ ID NO:8, GEO 251=SEQ ID NO:9, GEO 247=SEQ ID NO:10, GEO 244=SEQ ID NO:11, GEO 246=SEQ ID NO:12, GEO 248=SEQ ID NO:13, GEO 179=SEQ ID NO:14, GEO 240=SEQ ID NO:15, GEO 195=SEQ ID NO:16, GEO 241=SEQ ID NO:17, GEO 249=SEQ ID NO:4, KIVD_VLV=SEQ ID NO:3). Active site residues are denoted with a black box under the residue letter.
(§2) For the native KIVD and KIVD_VLV mutant, 2 ml overnight cultures of XL1B cells were transformed with pQE9 containing N-terminal his-tagged KIVD enzymes and grown in Terrific Broth (BP biomedical, Cat#3046-042) with 50 μg/mL of carbenicillin. (Fisher scientific, Cat# BP2648-5) For the GEOs, 2 ml overnight cultures of BLR cells were transformed with pet29b+ plasmid containing N-terminal his-tagged GEOs, and grown in Terrific Broth with 50 μg/mL of kanamycin. (Fisher scientific, Cat# BP906-5) These cultures were diluted 1:1000 in 500 mL of Terrific Broth with 1 mM MgSO4, 1% glucose, and 50ug/mL of corresponding antibiotics, then grown at 37° C. for 24 hours. Cultures were pelleted down at 4700 rpm for 10 mins and resuspended in auto-induction media (LB broth, 1 mM MgSO4, 0.1 mM TPP, 1×NPS, and 1×5052) for induction at 18° C. for 34 hours. […] Protein concentrations were determined using a Synergy H1 spectrophotometer (Biotek) by measuring absorbance at 280 nm using their calculated extinction coefficients with ExPASy ProtParam Tool.^33 All other buffers and salts were purchased from Fisher Scientific unless otherwise specified.
(§3) The kcat and KM values of selective KIVD mutants were measured for the substrates: C3, C5, isoC5, and C8. […] Activity was measured at 0.005 mM to 10 mM substrates. […] Absorbance readings were taken every 1-minute at OD340 at 21° C. for 60 minutes using the Synergy H1. Kinetic parameters (kcat and KM) were determined by fitting initial velocity versus substrate concentration data to the Michaelis-Menten equation.

For series [4], the system named is GEO195, 2-ketoacid decarboxylase, SEQ ID NO:16. The series is described as above. The format is biochemical. The conditions noted are these: pH 7.5, 21° C.
Source text: as §1, §2, §3

The mark [5] stands for this setting: 250 mg l^−1 alcohol supplemented, OD 1.9 without toxicity.
Where [6] appears, read: 500 mg l^−1 alcohol supplemented.
Where [7] appears, read: 1000 mg l^−1 alcohol supplemented.

Broadly, the kcat is the number of substrate molecules converted per active site and unit of time at saturation. In general, Km refers to the concentration of substrate that gives half-maximal velocity.

Sequence of GEO179, 2-ketoacid decarboxylase, SEQ ID NO:14 (A0ACD7F8P2 entry or part of it H281L/S236A/T380V): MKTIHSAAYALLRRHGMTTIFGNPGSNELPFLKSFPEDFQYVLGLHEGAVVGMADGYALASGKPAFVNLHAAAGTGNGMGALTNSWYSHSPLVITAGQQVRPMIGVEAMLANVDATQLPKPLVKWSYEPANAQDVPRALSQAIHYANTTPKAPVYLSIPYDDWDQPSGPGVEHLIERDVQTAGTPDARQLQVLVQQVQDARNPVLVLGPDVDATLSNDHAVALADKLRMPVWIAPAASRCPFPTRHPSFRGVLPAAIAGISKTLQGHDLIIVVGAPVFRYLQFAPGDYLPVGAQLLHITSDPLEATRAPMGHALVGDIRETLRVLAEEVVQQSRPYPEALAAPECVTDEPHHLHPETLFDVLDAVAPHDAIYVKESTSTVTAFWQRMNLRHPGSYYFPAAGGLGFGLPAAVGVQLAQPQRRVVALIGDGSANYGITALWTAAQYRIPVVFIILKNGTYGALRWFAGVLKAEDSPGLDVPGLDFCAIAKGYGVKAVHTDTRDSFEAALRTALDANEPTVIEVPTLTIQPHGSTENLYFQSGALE

Take `CC(=O)C(=O)O` [C3]: the “decrease in catalytic efficiency relative to GEO 175” value in series [1] was “less than 2 fold”.

As to `CCCCCCCCO` [C8 alcohol, 1-octanol], the results for the “final OD of E. coli cultures” value in series [2] (setting [5]) and in series [2] (setting [6]) were around 1.0 and “No significant growth”, respectively.

As for `CCCCCCCO` [heptanol, 1-heptanol], the “final OD of E. coli cultures” value in series [2] (setting [5]) is given as “approximately 1.6”; in series [2] (setting [6]), 0.1; in series [2] (setting [7]), “no significant growth”.

For `CCCCCCO` [hexanol, 1-hexanol], the “final OD of E. coli cultures” value was “approximately 1.6” in series [2] (setting [5]), 1.0 in series [2] (setting [6]) and 0.2 in series [2] (setting [7]).

`CC(C)C(=O)C(=O)O` [iso C5, 2-ketoisovaleric acid]: the kcat in series [3] was 0.39 ± 0.01 s⁻¹; in series [4] it was 0.072 ± 0.001 s⁻¹. For the same compound, the Km in series [4] was 9.1 ± 0.3 mM. Moreover, the “decrease in catalytic efficiency relative to GEO 175” value in series [1] is reported as “less than 2 fold”.

For the compound `CCCCCO` [pentanol, 1-pentanol], the “final OD of E. coli cultures” value in series [2] (setting [7]) was 1.5.

These data come from patent publication US10829756B2, “Discovery of enzymes from the alpha-keto acid decarboxylase family” (Regents of the University of California, priority 2015, dated 2020).
